Measured values taken from patent US8680120B2, “Indole derivative or pharmaceutically acceptable salt thereof” (Kissei Pharmaceutical Co., Ltd., priority 2009, dated 2014).

Biological target: rat EP1 receptor (Rattus norvegicus (Rat), UniProt P70597)
Assay: Test for confirmation of EP1 receptor antagonism: inhibition of the prostaglandin E2-induced increase in intracellular calcium concentration in rat EP1 receptor-expressing COS-1 cells
Format: cell-based
Settings: Method A: Fluo-4 NW Calcium Assay Kit, FlexStation; prostaglandin E2 10 nM; rat EP1 receptor-expressing COS-1 cells
Procedure: (1) Preparation of Rat EP1 Expression Vector
Using Rat Kidney BD Marathon-Ready cDNA (Nippon Becton Dickinson Company, Ltd.) as a template, a forward primer shown in SEQ ID NO. 1, and a reverse primer shown in SEQ ID NO. 2, a first run of PCR was carried out using KOD-Plus-Ver 2.0 (Toyobo Co., Ltd.). Further, using this amplification product as a template, a forward primer shown in SEQ ID NO. 3, and a reverse primer shown in SEQ ID NO. 4, a second run of PCR was carried out in the same manner. The amplification product obtained by the second run of PCR was incorporated into a vector (pcDNA3.1 D/V5-His-TOPO (registered trademark), Invitrogen Japan K. K.). By a conventional method, the vector containing this amplification product was introduced to E. coli (One Shot TOP10 Competent Cells, Invitrogen Corporation) to transform. This transformed E. coli was cultured in an LB agar medium for one day. After the culture, colonies were selected and cultured in an LB liquid medium containing 50 μg/mL of ampicillin. After the culture, the vector was purified using a QIAprep Spin Miniprep Kit (Qiagen K. K.). The base sequence of the insertion site of this vector (SEQ ID NO. 5) was compared with the rat EP1 base sequence (Ptger1) registered as an accession number NM_013100 in well-known database (NCBI), and as a result, they all matched except for a single base. Further, the amino acid sequence translated by the base sequence completely matched the amino acid sequence of the rat EP1 receptor registered as an NCBI accession number NP_037232. Therefore, it was confirmed that the cloned gene sequence was a base sequence of the rat EP1 receptor and the obtained amino acid sequence was that of the rat EP1 receptor. The pcDNA3.1 D/V5-His-TOPO (registered trademark) to which the nucleic acid shown in SEQ ID NO. 5 had been inserted was taken as a rat EP1-expressing vector.
(2) Preparation of Rat EP1 Receptor-Expressing Cells
COS-1 cells (Dainippon Sumitomo Pharma Co., Ltd.) were cultured until it reached confluence in an incubator at 37° C. under a 5% CO2 gas condition, using a D-MEM liquid medium (high glucose and L-glutamine contained, Invitrogen Corporation) to which a penicillin-streptomycin solution (Invitrogen Corporation, final concentration: 100 U/mL as benzylpenicillin; 100 μg/mL as streptomycin) as an antibiotic, MEM nonessential amino acids (Invitrogen Corporation, final Concentration: 0.1 mM), and fetal calf serum (Sanko Junyaku Co., Ltd., final concentration: 10%) were added.
The cells that had reached confluence were stripped with 0.05% trypsin/0.53 mM EDTA 4Na (Invitrogen Japan K. K.) and resuspended in the liquid medium. The resuspended cells were diluted and cultured in the liquid medium at a spread ratio from 1:4 to 1:8.
The cells that had reached confluence were stripped with 0.05% trypsin/0.53 mM EDTA.4Na, and resuspended in a D-MEM liquid medium (high glucose and L-glutamine contained, Invitrogen Corporation) to which an MEM nonessential amino acid (final concentration: 0.1 mM) and fetal calf serum (final concentration: 10%) were added. In each well of a Poly D-lysine-coated 96-well microplate (BD BioCoat (registered trademark), Nippon Becton Dickinson Company, Ltd.), this resuspended cell suspension culture was prepared to be 5×10^4 cells/well in 100 μL of the liquid medium, and seeded thereon. After seeding, the cells were cultured in an incubator at 37° C. under a 5% CO2 gas condition. At a point when the cells for introduction of a rat EP1-expressing vector were adhered (about 2 hours after seeding), introduction of the rat EP1-expressing vector was carried out in the following order.
For introduction of the rat EP1-expressing vector, Lipofectamine 2000 (Invitrogen Japan K. K.) was used. […]

rat EP1 receptor, sequence (P70597 whole entry): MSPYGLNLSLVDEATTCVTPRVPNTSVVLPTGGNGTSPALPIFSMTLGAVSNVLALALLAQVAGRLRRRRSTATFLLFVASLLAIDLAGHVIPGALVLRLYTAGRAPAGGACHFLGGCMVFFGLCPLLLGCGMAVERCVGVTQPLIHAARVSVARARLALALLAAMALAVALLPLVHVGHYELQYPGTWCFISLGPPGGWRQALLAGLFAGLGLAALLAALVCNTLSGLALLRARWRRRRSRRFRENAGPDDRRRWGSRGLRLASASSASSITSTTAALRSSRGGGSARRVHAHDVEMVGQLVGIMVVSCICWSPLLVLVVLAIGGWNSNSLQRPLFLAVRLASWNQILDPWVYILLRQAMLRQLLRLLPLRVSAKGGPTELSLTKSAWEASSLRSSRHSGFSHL

Row | IC50 [nM] | SMILES
1 | 21 | COc1ccc2c(c1)cc(-c1ccccc1)n2Cc1cccc(C(=O)O)c1 [Example 9-1, 3-(5-methoxy-2-phenylindol-1-ylmethyl)benzoic acid]
2 | 19 | COc1ccc2c(c1)cc(-c1ccccc1)n2Cc1cccc(C(=O)O)c1F [Example 9-44, 2-fluoro-3-(5-methoxy-2-phenylindol-1-ylmethyl)benzoic acid]
3 | 11 | COc1ccc2c(c1)cc(-c1ccoc1)n2Cc1cccc(C(=O)O)c1 [Example 9-32, 3-(2-furan-3-yl-5-methoxyindol-1-ylmethyl)benzoic acid]
4 | 13 | COc1cc2cc(-c3ccccc3)n(Cc3cccc(C(=O)O)c3)c2cc1F [Example 9-43, 3-(6-fluoro-5-methoxy-2-phenylindol-1-ylmethyl)benzoic acid]

Same assay, conditions: Method B: Calcium kit II Fluo 4, FDSS 7000; prostaglandin E2 10 nM; rat EP1 receptor-expressing COS-1 cells

Row | IC50 [nM] | SMILES
5 | 36 | COc1ccc2c(c1)cc(-c1ccc(F)cc1)n2Cc1cccc(C(=O)O)c1 [Example 25-19, 3-[2-(4-fluorophenyl)-5-methoxyindol-1-ylmethyl]benzoic acid]
6 | 32 | COc1ccc2c(c1)cc(-c1ccccc1F)n2Cc1cccc(C(=O)O)c1 [Example 25-17, 3-[2-(2-fluorophenyl)-5-methoxyindol-1-ylmethyl]benzoic acid]
7 | 37 | COc1cc2cc(-c3ccsc3)n(Cc3cccc(C(=O)O)n3)c2cc1C [Example 25-39, 6-(5-methoxy-6-methyl-2-thiophen-3-ylindol-1-ylmethyl)pyridine-2-carboxylic acid]
8 | 28 | COc1cc2cc(-c3cccnc3)n(Cc3cccc(C(=O)O)n3)c2cc1Cl [Example 25-42, 6-(6-chloro-5-methoxy-2-pyridin-3-ylindol-1-ylmethyl)pyridine-2-carboxylic acid]
9 | 34 | COc1ccc2c(c1)cc(-c1cccc(F)c1)n2Cc1ccc(C(=O)O)o1 [Example 25-11, 5-[2-(3-fluorophenyl)-5-methoxyindol-1-ylmethyl]furan-2-carboxylic acid]
10 | 17 | COc1cc2cc(-c3ccccc3)n(Cc3ccc(C(=O)O)o3)c2cc1Cl [Example 25-26, 5-[6 chloro-5-methoxy-2-phenylindol-1-ylmethyl]furan-2-carboxylic acid]
11 | 25 | COc1ccc2c(c1)cc(-c1cc(F)ccc1F)n2Cc1cccc(C(=O)O)n1 [Example 25-41, 6-[2-(2,5-difluorophenyl)-5-methoxyindol-1-ylmethyl)pyridine-2-carboxylic acid]
12 | 22 | COc1cc2cc(-c3ccoc3)n(Cc3ccc(C(=O)O)o3)c2cc1Cl [Example 25-38, 5-(6-chloro-2-furan-3-yl-5-methoxyindol-1-ylmethyl)furan-2-carboxylic acid]
13 | 38 | COc1ccc2c(c1)cc(-c1cccnc1)n2Cc1cccc(C(=O)O)c1 [Example 25-13, 3-(5-methoxy-2-pyridin-3-ylindol-1-ylmethyl)benzoic acid]
14 | 54 | COc1cc2cc(-c3ccsc3)n(Cc3cccc(C(=O)O)n3)c2cc1Cl [Example 25-34, 6-(6-chloro-5-methoxy-2-thiophen-3-ylindol-1-ylmethyl)pyridine-2-carboxylic acid]
15 | 32 | COc1cc2cc(-c3cccc(F)c3)n(Cc3cccc(C(=O)O)n3)c2cc1Cl [Example 25-23, 6-[6-chloro-2-(3-fluorophenyl)-5-methoxyindol-1-ylmethyl]pyridine-2-carboxylic acid]
16 | 39 | COc1cc2cc(-c3ccccc3)n(Cc3cccc(C(=O)O)n3)c2cc1C [Example 25-16, 6-(5-methoxy-6-methyl-2-phenylindol-1-ylmethyl)pyridine-2-carboxylic acid]
17 | 28 | COc1cc2cc(-c3ccccc3F)n(Cc3cccc(C(=O)O)n3)c2cc1F [Example 25-28, 6-[6-fluoro-2-(2-fluorophenyl)-5-methoxyindol-1-ylmethyl]pyridine-2-carboxylic acid]
18 | 17 | COc1ccc2c(c1)cc(-c1cccc(F)c1)n2Cc1cccc(C(=O)O)c1 [Example 25-18, 3-[2-(3-fluorophenyl)-5-methoxyindol-1-ylmethyl]benzoic acid]
